Results taken from ChEMBL document CHEMBL1201862, “PubChem BioAssay data set” (2004).
Values belong to the compound of their own block, whether it stands above or below them. Active and inactive are the calls of the source.

Columns and labels:
[1] = toxicity toward HepG2 liver cells – cell-based, plate reader, cherry-pick, antagonist series, cytotoxicity control, dose response (AID 743416); format: functional
[2] = blockers of bursicon-stimulated LGR2 cAMP reporter – cell-based, HEK293, CRE-luciferase reporter, cherry pick, set 2, dose response (AID 743343); format: functional;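 note: transfected cells were stimulated with diluted bursicon conditioned medium after compound addition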
[3] = Luminescence-based counterscreen assay for KLF5 inhibitors: dose response cell-based high throughput screening assay to identify cytotoxic compounds using the IEC-6 intestinal epithelial cell line. [Related pubchem assays: 1700 (Primary screen.), 1834 (Confirmation screen.), 1858 (Summary AID.), 1905 (Counterscreen.)]; format: functional
[4] = A549 cell cytotoxicity, dose response, cytotoxicity control, plate reader, cherry-pick, antagonist series (AID 743412); format: functional, cell-based
[5] = blockade of melanocortin 4 receptor signaling – cell-based, plate reader, cherry pick, counter-screen for LGR2 antagonist project, dose response (AID 743444); format: functional;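 note: transfected HEK 293 cells stimulated with alpha-MSH peptide; potency of inhibitors of the alpha-MSH evoked signal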
[6] = viability loss in HEK293 cells – cell-based, plate reader, cherry-picked samples, cytotoxicity control, dose response (AID 743446); format: functional
[7] = molecular target: T1, Calpain-2 catalytic subunit (Sus scrofa, UniProt P43367); assay: m-calpain protease blockers, concentration series – biochemical, fluorogenic peptide substrate, dose response (AID 1420); format: functional
T1 sequence (P43367 whole entry): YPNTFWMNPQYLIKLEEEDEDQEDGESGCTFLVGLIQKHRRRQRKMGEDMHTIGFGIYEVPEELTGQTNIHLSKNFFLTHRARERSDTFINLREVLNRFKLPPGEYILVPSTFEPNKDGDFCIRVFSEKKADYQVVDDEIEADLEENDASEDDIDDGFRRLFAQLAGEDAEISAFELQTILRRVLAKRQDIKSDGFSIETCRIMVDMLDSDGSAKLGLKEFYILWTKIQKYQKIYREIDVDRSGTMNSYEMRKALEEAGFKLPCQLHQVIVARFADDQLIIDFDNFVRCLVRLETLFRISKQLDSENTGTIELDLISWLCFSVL

[8] = molecular target: Hexokinase HKDC1 (Homo sapiens, UniProt Q2TB90); assay: inhibition of HKDC1 glucose phosphorylation – biochemical, W721R variant, dose response (AID 504729); format: functional
[9] = molecular target: T2, Alkaline phosphatase, tissue-nonspecific isozyme (Homo sapiens, UniProt P05186)
T2 sequence (P05186 whole entry): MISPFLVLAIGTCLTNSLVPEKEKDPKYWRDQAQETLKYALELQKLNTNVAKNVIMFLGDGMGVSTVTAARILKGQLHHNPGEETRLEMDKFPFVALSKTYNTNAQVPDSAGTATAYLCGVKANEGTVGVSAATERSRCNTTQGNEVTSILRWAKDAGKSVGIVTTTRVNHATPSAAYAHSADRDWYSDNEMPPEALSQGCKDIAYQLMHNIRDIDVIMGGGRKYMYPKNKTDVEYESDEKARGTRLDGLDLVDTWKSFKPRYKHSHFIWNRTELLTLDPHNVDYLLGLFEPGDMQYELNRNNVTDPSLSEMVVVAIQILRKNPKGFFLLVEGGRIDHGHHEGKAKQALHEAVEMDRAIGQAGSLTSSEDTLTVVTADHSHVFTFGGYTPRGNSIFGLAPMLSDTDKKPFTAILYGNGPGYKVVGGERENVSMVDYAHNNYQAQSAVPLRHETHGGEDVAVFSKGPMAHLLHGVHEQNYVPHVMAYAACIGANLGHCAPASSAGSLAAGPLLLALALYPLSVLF

[10] = molecular target: T3, RNA-binding protein pos-1 (Caenorhabditis elegans, UniProt G5EF15); assay: disruptors of C. elegans POS-1 RNA interaction – biochemical, fluorescence polarization, dose response (AID 1964);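 note: purified POS-1 fused to maltose binding protein made in E. coli; potency of compounds blocking POS-1 binding to fluorescent RNA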
T3 sequence (G5EF15 whole entry): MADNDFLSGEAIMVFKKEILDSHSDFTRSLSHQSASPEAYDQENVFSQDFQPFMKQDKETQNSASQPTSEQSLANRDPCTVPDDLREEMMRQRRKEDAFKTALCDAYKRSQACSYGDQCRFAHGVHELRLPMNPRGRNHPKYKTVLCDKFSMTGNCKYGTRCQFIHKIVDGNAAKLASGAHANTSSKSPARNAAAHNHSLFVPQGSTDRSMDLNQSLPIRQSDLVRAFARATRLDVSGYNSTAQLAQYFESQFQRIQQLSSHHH

[11] = molecular target: Luciferin 4-monooxygenase (Photinus pyralis, UniProt P08659); assay: Counter Screen for Luciferase-based Assay Positives. [Related pubchem assays: 620, 618, 411 ]
[12] = system: HT-1080; assay: HT1080 cell viability loss – fluorescence readout (AID 620); format: functional, cell-based; conditions: Homo sapiens
[13] = molecular target: T4, Zinc finger protein mex-5 (Caenorhabditis elegans, UniProt Q9XUB2); assay: potency of MEX-5 RNA-binding blockers – biochemical, C. elegans, fluorescence polarization, dose response (AID 1960)
T4 sequence (Q9XUB2 whole entry): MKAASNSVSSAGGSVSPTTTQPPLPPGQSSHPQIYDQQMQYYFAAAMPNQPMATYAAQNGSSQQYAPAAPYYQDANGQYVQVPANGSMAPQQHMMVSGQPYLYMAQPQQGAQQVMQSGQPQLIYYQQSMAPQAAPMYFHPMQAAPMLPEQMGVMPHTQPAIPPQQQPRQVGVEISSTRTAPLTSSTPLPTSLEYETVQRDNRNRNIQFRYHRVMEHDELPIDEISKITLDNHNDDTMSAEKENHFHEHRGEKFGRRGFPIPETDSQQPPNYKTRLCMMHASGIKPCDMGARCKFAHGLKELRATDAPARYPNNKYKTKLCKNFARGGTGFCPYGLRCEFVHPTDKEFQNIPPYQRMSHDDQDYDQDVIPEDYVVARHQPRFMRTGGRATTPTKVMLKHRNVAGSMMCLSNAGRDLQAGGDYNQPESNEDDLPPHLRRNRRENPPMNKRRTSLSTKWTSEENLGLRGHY

[14] = HPDE-C7 pancreatic duct cell viability loss – fluorescence, HTS (AID 430); format: functional, cell-based; conditions: Homo sapiens
[15] = viability loss of HPDE-C7K cells – cell-based, fluorescence, HTS, primary screen (AID 431); format: functional; conditions: Homo sapiens

Chain of Hexokinase HKDC1 (Q2TB90 whole entry): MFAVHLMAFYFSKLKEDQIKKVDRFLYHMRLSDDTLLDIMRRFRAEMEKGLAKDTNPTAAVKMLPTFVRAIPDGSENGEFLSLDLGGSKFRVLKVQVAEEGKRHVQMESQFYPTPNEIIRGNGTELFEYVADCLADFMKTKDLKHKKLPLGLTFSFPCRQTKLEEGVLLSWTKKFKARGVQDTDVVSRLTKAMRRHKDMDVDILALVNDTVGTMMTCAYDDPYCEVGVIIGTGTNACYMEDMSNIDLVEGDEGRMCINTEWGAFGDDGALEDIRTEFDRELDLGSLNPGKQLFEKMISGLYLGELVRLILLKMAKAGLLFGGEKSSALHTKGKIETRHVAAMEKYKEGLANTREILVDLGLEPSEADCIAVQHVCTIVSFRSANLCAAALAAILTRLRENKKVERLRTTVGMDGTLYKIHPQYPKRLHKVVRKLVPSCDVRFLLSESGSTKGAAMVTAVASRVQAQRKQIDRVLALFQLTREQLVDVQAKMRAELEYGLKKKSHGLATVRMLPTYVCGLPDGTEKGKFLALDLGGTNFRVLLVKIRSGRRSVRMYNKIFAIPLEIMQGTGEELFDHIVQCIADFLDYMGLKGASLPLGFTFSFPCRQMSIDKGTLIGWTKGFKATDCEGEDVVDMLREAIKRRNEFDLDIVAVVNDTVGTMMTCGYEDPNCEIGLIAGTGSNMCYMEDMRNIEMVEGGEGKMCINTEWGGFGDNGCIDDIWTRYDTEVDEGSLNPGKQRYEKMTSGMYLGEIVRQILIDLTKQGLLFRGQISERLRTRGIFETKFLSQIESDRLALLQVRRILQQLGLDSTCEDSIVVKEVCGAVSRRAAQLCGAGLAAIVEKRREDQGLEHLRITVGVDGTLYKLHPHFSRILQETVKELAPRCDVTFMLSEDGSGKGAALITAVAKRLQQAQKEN
Chain of Luciferin 4-monooxygenase (P08659 whole entry): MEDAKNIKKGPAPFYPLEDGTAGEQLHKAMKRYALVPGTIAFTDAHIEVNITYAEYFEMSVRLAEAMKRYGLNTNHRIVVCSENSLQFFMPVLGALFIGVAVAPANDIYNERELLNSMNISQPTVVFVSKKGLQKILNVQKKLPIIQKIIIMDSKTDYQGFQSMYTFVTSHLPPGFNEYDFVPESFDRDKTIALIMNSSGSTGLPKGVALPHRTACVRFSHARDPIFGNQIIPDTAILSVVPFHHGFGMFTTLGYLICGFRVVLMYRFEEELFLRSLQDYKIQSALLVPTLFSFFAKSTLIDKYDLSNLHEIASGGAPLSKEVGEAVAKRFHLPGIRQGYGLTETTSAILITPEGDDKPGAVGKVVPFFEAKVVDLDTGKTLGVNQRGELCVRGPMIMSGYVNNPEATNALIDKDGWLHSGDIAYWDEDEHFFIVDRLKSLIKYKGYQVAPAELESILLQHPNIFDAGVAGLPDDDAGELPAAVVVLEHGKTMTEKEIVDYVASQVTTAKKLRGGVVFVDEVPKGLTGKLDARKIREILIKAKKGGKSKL

Structure (SMILES): CCc1ccc(C(=O)Nc2nc3ccccc3[nH]2)cc1
AC50 [1]: 29.3 µM (active)
AC50 [2]: 1.27 µM (active)
IC50 [3]: 22.1 µM (not active)
AC50 [4]: 31.8 µM (active)
AC50 [5]: 1.45 µM (active)
AC50 [6]: 28.4 µM (active)

IC50 [7]: 9.87 µM (not active)
IC50 [8]: 18.8 µM (active)
Structure (SMILES): Cc1cc(C)n2nc(SCc3nnc(SCc4ccccc4Cl)s3)nc2n1

EC50 [9]: 65 µM (not active)
Structure (SMILES): Cn1nc(CC(=O)NC2CCCCCCCCCCC2)c2ccccc2c1=O

Structure (SMILES): Cc1c(NC(=O)c2coc(=O)c(Br)c2)c(=O)n(-c2ccccc2)n1C
EC50 [10]: 8.99 µM (active)
EC50 [11]: 0.61 µM (active)
EC50 [12]: 15 µM (active)
EC50 [13]: 16.8 µM (active)
EC50 [14]: 7.2 µM (active)
EC50 [15]: 7.23 µM (active)
